Assay results as given in patent US20230085307A1, “PYRIDAZINONE COMPOUND AND HERBICIDE” (NISSAN CHEMICAL CORPORATION, priority 2019, published 2023).

What was measured:
Chinese sprangletop = assay: Test Example 3: herbicidal effect by foliage application, Wagner pot (Table 18, symbol D); type: in vivo, chinese sprangletop (Leptochloa chinensis); conditions: amount of applied herbicide 320 g/ha
Outline: (§1)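 Plants were sown in alluvial soil held under 0.1–0.5 cm standing water and grown 14 days in a greenhouse at 25–30 °C. An emulsifiable formulation, water-diluted to the set dose, was then sprayed onto the foliage, and effects were scored three weeks later using previously defined criteria.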

rice flat sedge = assay: Test Example 3: herbicidal effect by foliage application, Wagner pot (Table 18, symbol E); type: in vivo, rice flat sedge (Cyperus iria); conditions: amount of applied herbicide 320 g/ha
Outline: as §1

green foxtail = assay: Test Example 5: herbicidal effect by foliage application, plastic box (Table 20, symbol G); type: in vivo, green foxtail (Setaria viridis); conditions: foliage application, 320 g/ha, evaluated three weeks after application
Outline: (§2)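 Plants were sown into sterilized diluvial soil under about 1.5 cm cover and kept in a greenhouse at 25° C. to 30° C. Fourteen days on, foliage received an even spray of the diluted emulsion. Herbicidal or crop effect was judged three weeks afterwards.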

wild oat = assay: Test Example 5: herbicidal effect by foliage application, plastic box (Table 20, symbol I); type: in vivo, wild oat (Avena fatua); conditions: foliage application, 320 g/ha, evaluated three weeks after application
Outline: as §2

windgrass = assay: Test Example 5: herbicidal effect by foliage application, plastic box (Table 20, symbol L); type: in vivo, windgrass (Apera spica-venti); conditions: foliage application, 320 g/ha, evaluated three weeks after application
Outline: as §2

persian speedwell = assay: Test Example 5: herbicidal effect by foliage application, plastic box (Table 20, symbol R); type: in vivo, Persian speedwell (Veronica persica); conditions: foliage application, 320 g/ha, evaluated three weeks after application
Outline: as §2

velvetleaf = assay: Test Example 5: herbicidal effect by foliage application, plastic box (Table 20, symbol M); type: in vivo, velvetleaf (Abutilon theophrasti); conditions: foliage application, 320 g/ha, evaluated three weeks after application
Outline: as §2

blackgrass = assay: Test Example 5: herbicidal effect by foliage application, plastic box (Table 20, symbol J); type: in vivo, blackgrass (Alopecurus myosuroides); conditions: foliage application, 320 g/ha, evaluated three weeks after application
Outline: as §2

barnyard grass [1] = assay: Test Example 5: herbicidal effect by foliage application, plastic box (Table 20, symbol H); type: in vivo, barnyard grass (Echinochloa crus-galli); conditions: foliage application, 320 g/ha, evaluated three weeks after application
Outline: as §2

redroot pigweed = assay: Test Example 5: herbicidal effect by foliage application, plastic box (Table 20, symbol N); type: in vivo, redroot pigweed (Amaranthus retroflexus); conditions: foliage application, 320 g/ha, evaluated three weeks after application
Outline: as §2

southern crabgrass = assay: Test Example 5: herbicidal effect by foliage application, plastic box (Table 20, symbol F); type: in vivo, southern crabgrass (Digitaria ciliaris); conditions: foliage application, 320 g/ha, evaluated three weeks after application
Outline: as §2

barnyard grass [2] = assay: Test Example 3: herbicidal effect by foliage application, Wagner pot (Table 18, symbol H); type: in vivo, barnyard grass (Echinochloa crus-galli); conditions: amount of applied herbicide 320 g/ha
Outline: as §1

Italian ryegrass = assay: Test Example 5: herbicidal effect by foliage application, plastic box (Table 20, symbol K); type: in vivo, Italian ryegrass (Lolium multiflorum); conditions: foliage application, 320 g/ha, evaluated three weeks after application
Outline: as §2

chickweed = assay: Test Example 5: herbicidal effect by foliage application, plastic box (Table 20, symbol P); type: in vivo, common chickweed (Stellaria media); conditions: foliage application, 320 g/ha, evaluated three weeks after application
Outline: as §2

lambsquarters = assay: Test Example 5: herbicidal effect by foliage application, plastic box (Table 20, symbol O); type: in vivo, lambsquarters (Chenopodium album); conditions: foliage application, 320 g/ha, evaluated three weeks after application
Outline: as §2

Row | SMILES | herbicidal effect on D: Chinese sprangletop (Chinese sprangletop) | herbicidal effect on E: rice flat sedge (rice flat sedge) | herbicidal effect on G: green foxtail (criteria 0-5) (green foxtail) | herbicidal effect on I: wild oat (criteria 0-5) (wild oat) | herbicidal effect on L: windgrass (criteria 0-5) (windgrass) | herbicidal effect on R: persian speedwell (criteria 0-5) (persian speedwell) | herbicidal effect on M: velvetleaf (criteria 0-5) (velvetleaf) | herbicidal effect on J: blackgrass (criteria 0-5) (blackgrass) | herbicidal effect on H: barnyard grass (criteria 0-5) (barnyard grass [1]) | herbicidal effect on N: redroot pigweed (criteria 0-5) (redroot pigweed) | herbicidal effect on F: southern crabgrass (criteria 0-5) (southern crabgrass) | herbicidal effect on H: barnyard grass (barnyard grass [2]) | herbicidal effect on K: Italian ryegrass (criteria 0-5) (Italian ryegrass) | herbicidal effect on P: chickweed (criteria 0-5) (chickweed) | herbicidal effect on O: lambsquarters (criteria 0-5) (lambsquarters)
1 | CCCC(=O)Oc1c(C)nn(C)c(=O)c1-c1c(-c2ccc([N+](=O)[O-])cc2)sc2ccc(C)cc12 [2-145] | 0 (Herbicidal rate of 5% or less (almost no effect)) | 4 (Herbicidal rate of 70% or more and less than 90%) | 3 (Herbicidal rate of 40% or more and less than 70%) | 0 (Herbicidal rate of 5% or less (almost no effect)) | 0 (Herbicidal rate of 5% or less (almost no effect)) | 5 (Herbicidal rate of 90% or more (almost completely withered)) | 4 (Herbicidal rate of 70% or more and less than 90%) | 0 (Herbicidal rate of 5% or less (almost no effect)) | 3 (Herbicidal rate of 40% or more and less than 70%) | 4 (Herbicidal rate of 70% or more and less than 90%) | 1 (Herbicidal rate of 5% or more and less than 20%) | 3 (Herbicidal rate of 40% or more and less than 70%) | 3 (Herbicidal rate of 40% or more and less than 70%) | 5 (Herbicidal rate of 90% or more (almost completely withered)) | 4 (Herbicidal rate of 70% or more and less than 90%)
2 | COc1ccc(-c2sc3ccc(C)cc3c2-c2c(O)c(C)nn(C)c2=O)cc1OC [2-152] | 0 (Herbicidal rate of 5% or less (almost no effect)) | 3 (Herbicidal rate of 40% or more and less than 70%) | 0 (Herbicidal rate of 5% or less (almost no effect)) | 0 (Herbicidal rate of 5% or less (almost no effect)) | 0 (Herbicidal rate of 5% or less (almost no effect)) | 4 (Herbicidal rate of 70% or more and less than 90%) | 0 (Herbicidal rate of 5% or less (almost no effect)) | 0 (Herbicidal rate of 5% or less (almost no effect)) | 0 (Herbicidal rate of 5% or less (almost no effect)) | 0 (Herbicidal rate of 5% or less (almost no effect)) | 0 (Herbicidal rate of 5% or less (almost no effect)) | 0 (Herbicidal rate of 5% or less (almost no effect)) | 2 (Herbicidal rate of 20% or more and less than 40%) | 5 (Herbicidal rate of 90% or more (almost completely withered)) | 0 (Herbicidal rate of 5% or less (almost no effect))
3 | COc1cc(F)ccc1-c1sc2ccc(N(C)C(C)=O)cc2c1-c1c(O)c(C)nn(C)c1=O [2-177] | 4 (Herbicidal rate of 70% or more and less than 90%) | 3 (Herbicidal rate of 40% or more and less than 70%) | 3 (Herbicidal rate of 40% or more and less than 70%) | 0 (Herbicidal rate of 5% or less (almost no effect)) | 3 (Herbicidal rate of 40% or more and less than 70%) | 4 (Herbicidal rate of 70% or more and less than 90%) | 3 (Herbicidal rate of 40% or more and less than 70%) | 3 (Herbicidal rate of 40% or more and less than 70%) | 0 (Herbicidal rate of 5% or less (almost no effect)) | 4 (Herbicidal rate of 70% or more and less than 90%) | 0 (Herbicidal rate of 5% or less (almost no effect)) | 3 (Herbicidal rate of 40% or more and less than 70%) | 0 (Herbicidal rate of 5% or less (almost no effect)) | 5 (Herbicidal rate of 90% or more (almost completely withered)) | 3 (Herbicidal rate of 40% or more and less than 70%)
